# “Also recorded” adds a separate entry of the source. Like-named read-outs stand apart in the source and are kept apart here.
# Test: Organ distribution of regorafenib in rats with or without RT
# Format: in vivo, Sprague-Dawley rats
# Conditions: for concentration at 4 h: Sprague-Dawley, rat, 16 mg/kg, 4 h after oral administration
# Method: According to the formula used to translate doses from animal to human, human equivalent dose (HED, mg/kg) = animal dose (mg/kg) × animal km/human km, we calculated the daily dose of regorafenib for rats to be 16 (mg/kg/day). The rats were randomly divided into ten groups with six rats in each group. The concurrent groups treated with regorafenib 1 h after RT, in the same day, to mimic regorafenib concurrent with RT in the daily practice. The sequential groups treated with regorafenib following RT (not in the same day), to mimic RT followed by regorafenib in the daily practice. The one fraction study group included (A) a sham group, regorafenib with RT0 Gy (regorafenib × 1 d); concurrent groups treated with regorafenib 1 h after (B) RT2 Gy with 1 fraction (RT2 Gy × 1 f’x) and (D) RT9 Gy with 1 fraction (RT9 Gy × 1 f’x); and sequential groups treated with regorafenib 24 h after (C) RT2 Gy × 1 f’x and (E) RT9 Gy × 1 f’x. Continued treatment mimicking clinical practice was applied to (A) a sham group, regorafenib (p.o. (per os), q.d. × 3 d) with RT0 Gy (regorafenib × 3 d); concurrent groups treated with regorafenib (p.o., q.d. × 3 d) 1 h after (B) RT2 Gy with 3 fractions (RT2 Gy × 3 f’x) and (D) RT9 Gy with 3 fractions (RT9Gy × 3 f’x); and sequential groups treated with regorafenib 24 h (p.o., q.d. × 3 d) after (C) RT2 Gy × 3 f’x and (E) RT9 Gy × 3 f’x. (Figure 1A,B).
# Organs, including the brain, liver, heart, spleen, lung and kidney, were collected, weighed and stored at −20 °C, until analysis.
# The organ samples were homogenized in 50% aqueous acetonitrile (sample weight: volume = 1:5) and centrifuged at 13,000× g, for 10 min, at 4 °C. The supernatant was stored at −20 °C, until analysis. Additionally, 150 μL of IS solution (diethylstilbestrol) was combined with each organ sample (50 μL) for protein precipitation. Finally, the filtrate (20 μL) was analyzed by HPLC.
structure (smiles),measurement,setting,value
"CNC(=O)c1cc(Oc2ccc(NC(=O)Nc3ccc(Cl)c(C(F)(F)F)c3)c(F)c2)ccn1 [regorafenib, Regorafenib]",concentration at 4 h,"brain, oral, RT2 Gy × 1 f'x followed by regorafenib 16 mg/kg × 1 d (sequential), read-out: Concentration in brain",80 ± 60 ng/g
same,concentration at 4 h,"brain, oral, RT2 Gy × 3 f'x followed by regorafenib 16 mg/kg × 3 d (sequential), read-out: Concentration in brain",30 ± 50 ng/g
same,concentration at 4 h,"brain, oral, RT2 Gy × 3 f'x with regorafenib 16 mg/kg × 3 d (concurrent), read-out: Concentration in brain",20 ± 50 ng/g
same,concentration at 4 h,"brain, oral, RT9 Gy × 1 f'x with regorafenib 16 mg/kg × 1 d (concurrent), read-out: Concentration in brain",10 ± 20 ng/g
same,concentration at 4 h,"heart, oral, RT2 Gy × 1 f'x followed by regorafenib 16 mg/kg × 1 d (sequential), read-out: Concentration in heart",780 ± 270 ng/g
same,concentration at 4 h,"heart, oral, RT2 Gy × 3 f'x followed by regorafenib 16 mg/kg × 3 d (sequential), read-out: Concentration in heart",290 ± 180 ng/g
same,concentration at 4 h,"heart, oral, RT2 Gy × 3 f'x with regorafenib 16 mg/kg × 3 d (concurrent), read-out: Concentration in heart",30 ± 30 ng/g
same,concentration at 4 h,"heart, oral, RT9 Gy × 1 f'x with regorafenib 16 mg/kg × 1 d (concurrent), read-out: Concentration in heart",360 ± 330 ng/g
same,concentration at 4 h,"kidney, oral, RT2 Gy × 1 f'x followed by regorafenib 16 mg/kg × 1 d (sequential), read-out: Concentration in kidneys",590 ± 270 ng/g
same,concentration at 4 h,"kidney, oral, RT2 Gy × 3 f'x followed by regorafenib 16 mg/kg × 3 d (sequential), read-out: Concentration in kidneys",730 ± 440 ng/g
same,concentration at 4 h,"kidney, oral, RT2 Gy × 3 f'x with regorafenib 16 mg/kg × 3 d (concurrent), read-out: Concentration in kidneys",130 ± 60 ng/g
same,concentration at 4 h,"kidney, oral, RT9 Gy × 1 f'x with regorafenib 16 mg/kg × 1 d (concurrent), read-out: Concentration in kidneys",180 ± 50 ng/g
same,concentration at 4 h,"liver, oral, RT2 Gy × 1 f'x followed by regorafenib 16 mg/kg × 1 d (sequential), read-out: Concentration in liver",2280 ± 750 ng/g
same,concentration at 4 h,"liver, oral, RT2 Gy × 3 f'x followed by regorafenib 16 mg/kg × 3 d (sequential), read-out: Concentration in liver",1680 ± 650 ng/g
same,concentration at 4 h,"liver, oral, RT2 Gy × 3 f'x with regorafenib 16 mg/kg × 3 d (concurrent), read-out: Concentration in liver",550 ± 270 ng/g
same,concentration at 4 h,"liver, oral, RT9 Gy × 1 f'x with regorafenib 16 mg/kg × 1 d (concurrent), read-out: Concentration in liver",1010 ± 580 ng/g
same,concentration at 4 h,"lung, oral, RT2 Gy × 1 f'x followed by regorafenib 16 mg/kg × 1 d (sequential), read-out: Concentration in lung",1270 ± 640 ng/g
same,concentration at 4 h,"lung, oral, RT2 Gy × 3 f'x followed by regorafenib 16 mg/kg × 3 d (sequential), read-out: Concentration in lung",990 ± 430 ng/g
same,concentration at 4 h,"lung, oral, RT2 Gy × 3 f'x with regorafenib 16 mg/kg × 3 d (concurrent), read-out: Concentration in lung",210 ± 90 ng/g
same,concentration at 4 h,"lung, oral, RT9 Gy × 1 f'x with regorafenib 16 mg/kg × 1 d (concurrent), read-out: Concentration in lung",170 ± 140 ng/g
same,concentration at 4 h,"spleen, oral, RT2 Gy × 1 f'x followed by regorafenib 16 mg/kg × 1 d (sequential), read-out: Concentration in spleen",680 ± 300 ng/g
same,concentration at 4 h,"spleen, oral, RT2 Gy × 3 f'x followed by regorafenib 16 mg/kg × 3 d (sequential), read-out: Concentration in spleen",410 ± 240 ng/g
same,concentration at 4 h,"spleen, oral, RT2 Gy × 3 f'x with regorafenib 16 mg/kg × 3 d (concurrent), read-out: Concentration in spleen",80 ± 60 ng/g
same,concentration at 4 h,"spleen, oral, RT9 Gy × 1 f'x with regorafenib 16 mg/kg × 1 d (concurrent), read-out: Concentration in spleen",140 ± 70 ng/g
same,"Biodistribution in heart, liver, lung, spleen and kidneys (in words)",concurrent RT2 Gy × 3 f'x and RT9 Gy × 3 f'x vs control (regorafenib × 3 d),clearly decreased the biodistribution of regorafenib; also recorded: obviously decreased the biodistribution of regorafenib
same,concentration at 4 h,"male, brain, oral, RT2 Gy × 1 f'x with regorafenib 16 mg/kg × 1 d (concurrent), read-out: Concentration in brain",20 ± 30 ng/g
same,concentration at 4 h,"male, brain, oral, RT9 Gy × 1 f'x followed by regorafenib 16 mg/kg × 1 d (sequential), read-out: Concentration in brain",60 ± 50 ng/g
same,concentration at 4 h,"male, brain, oral, RT9 Gy × 3 f'x followed by regorafenib 16 mg/kg × 3 d (sequential), read-out: Concentration in brain",40 ± 80 ng/g
same,concentration at 4 h,"male, brain, oral, RT9 Gy × 3 f'x with regorafenib 16 mg/kg × 3 d (concurrent), read-out: Concentration in brain",10 ± 20 ng/g
same,concentration at 4 h,"male, brain, po, 16 mg/kg p.o. × 1 d, no RT, read-out: Concentration in brain",30 ± 40 ng/g
same,concentration at 4 h,"male, brain, po, 16 mg/kg p.o. × 3 d, no RT, read-out: Concentration in brain",10 ± 20 ng/g
same,concentration at 4 h,"male, heart, oral, RT2 Gy × 1 f'x with regorafenib 16 mg/kg × 1 d (concurrent), read-out: Concentration in heart",290 ± 170 ng/g
same,concentration at 4 h,"male, heart, oral, RT9 Gy × 1 f'x followed by regorafenib 16 mg/kg × 1 d (sequential), read-out: Concentration in heart",870 ± 140 ng/g
same,concentration at 4 h,"male, heart, oral, RT9 Gy × 3 f'x followed by regorafenib 16 mg/kg × 3 d (sequential), read-out: Concentration in heart",170 ± 270 ng/g
same,concentration at 4 h,"male, heart, oral, RT9 Gy × 3 f'x with regorafenib 16 mg/kg × 3 d (concurrent), read-out: Concentration in heart",90 ± 70 ng/g
same,concentration at 4 h,"male, heart, po, 16 mg/kg p.o. × 1 d, no RT, read-out: Concentration in heart",450 ± 310 ng/g
same,concentration at 4 h,"male, heart, po, 16 mg/kg p.o. × 3 d, no RT, read-out: Concentration in heart",250 ± 100 ng/g
same,concentration at 4 h,"male, kidney, oral, RT2 Gy × 1 f'x with regorafenib 16 mg/kg × 1 d (concurrent), read-out: Concentration in kidneys",210 ± 110 ng/g
same,concentration at 4 h,"male, kidney, oral, RT9 Gy × 1 f'x followed by regorafenib 16 mg/kg × 1 d (sequential), read-out: Concentration in kidneys",590 ± 340 ng/g
same,concentration at 4 h,"male, kidney, oral, RT9 Gy × 3 f'x followed by regorafenib 16 mg/kg × 3 d (sequential), read-out: Concentration in kidneys",400 ± 430 ng/g
same,concentration at 4 h,"male, kidney, oral, RT9 Gy × 3 f'x with regorafenib 16 mg/kg × 3 d (concurrent), read-out: Concentration in kidneys",170 ± 120 ng/g
same,concentration at 4 h,"male, kidney, po, 16 mg/kg p.o. × 1 d, no RT, read-out: Concentration in kidneys",340 ± 190 ng/g
same,concentration at 4 h,"male, kidney, po, 16 mg/kg p.o. × 3 d, no RT, read-out: Concentration in kidneys",650 ± 250 ng/g
